Measured values as given in patent US4656166A, “Antibiotic compounds derived from cephalosporins, process for their production and pharmaceutical compositions” (Sanofi, priority 1983, dated 1987).
≈ marks a conversion by molar mass, not a printed value.

Tests used:
Format in all cases: cell-based
[1] = system: Proteus vulgaris RL 99 bis; test: MIC, in vitro dilution method, Proteus vulgaris RL 99 bis (Table III); settings: RL99BIS; Proteus vulgaris RL 99 bis; dilution method; read-out: MIC
Source text: (§1) The products of the invention have been studied as regards their pharmacological properties and, more especially, bacteriostatic action. This has been determined in vitro by the dilution method, and the study was on Gram negative strains.
(§2) Results, expressed in minimum inhibiting concentrations (MIC-- μg/ml), are collected in the following table (Table III).

Enterobacter RO 154 = test: MIC, in vitro dilution method, Enterobacter RO 154 (Table III); settings: RO154; Enterobacter RO 154; dilution method; read-out: MIC
Source text: as §1, §2

Citrobacter RL 49 = test: MIC, in vitro dilution method, Citrobacter RL 49 (Table III); settings: RL49; Citrobacter RL 49; dilution method; read-out: MIC
Source text: as §1, §2

Klebsiella RO 30 = test: MIC, in vitro dilution method, Klebsiella RO 30 (Table III); settings: RO30; Klebsiella RO 30; dilution method; read-out: MIC
Source text: as §1, §2

Escherichia coli SOL 90 = test: MIC, in vitro dilution method, Escherichia coli SOL 90 (Table III); settings: SOL90; Escherichia coli SOL 90; dilution method; read-out: MIC
Source text: as §1, §2

Pseudomonas RL 112 = test: MIC, in vitro dilution method, Pseudomonas RL 112 (Table III); settings: RL112
Source text: as §1, §2

Serratia RL 72 = test: MIC, in vitro dilution method, Serratia RL 72 (Table III); settings: RL72
Source text: as §1, §2

[2] = system: Proteus vulgaris GN 76/C.1; test: MIC on beta-lactamase producing strain Proteus vulgaris GN 76/C.1 (Table IV); settings: GN76; Proteus vulgaris GN 76/C.1, producing beta-lactamases; read-out: MIC
Procedure: (§3) To evaluate the stability of these products towards beta-lactamases, their MIC was determined on isogenic strains producing and not producing beta-lactamases.
(§4) The results are expressed in μg/ml in Table IV.

[3] = system: Serrtia liquefaciens SL 1326 S; test: MIC on strain not producing beta-lactamase, Serratia liquefaciens SL 1326 S (Table IV); settings: SL1326S, not producing beta-lactamases
Procedure: as §3, §4

Escherichia coli 255 = test: MIC on beta-lactamase producing strain Escherichia coli 255 (Table IV); settings: Escherichia coli 255, producing beta-lactamases; read-out: MIC
Procedure: as §3, §4

Escherichia coli 255/L.7 = test: MIC on strain not producing beta-lactamase, Escherichia coli 255/L.7 (Table IV); settings: Escherichia coli 255/L.7 *, not producing beta-lactamases; read-out: MIC
Procedure: as §3, §4

[4] = system: Serrtia liquefaciens SL/326 A; test: MIC on beta-lactamase producing strain Serratia liquefaciens SL/326 A (Table IV)
Procedure: as §3, §4

| SMILES | MIC [1] | MIC (Enterobacter RO 154) | MIC (Citrobacter RL 49) | MIC (Klebsiella RO 30) | MIC (Escherichia coli SOL 90) | MIC (Pseudomonas RL 112) | MIC (Serratia RL 72) | MIC [2] | MIC [3] | MIC (Escherichia coli 255) | MIC (Escherichia coli 255/L.7) | MIC [4] |
| --- | --- | --- | --- | --- | --- | --- | --- | --- | --- | --- | --- | --- |
| CC(C)C[C@H](N)C(=O)OCC1=C(C(=O)O)N2C(=O)C(NC(=O)/C(=N\OC(C)(C)C(=O)O)c3csc(N)n3)C2[S+]([O-])C1 (some centres unmarked) [41 859] | 0.25 µg/mL (≈ 0.407 µM) | 8 µg/mL (≈ 13 µM) | 2 µg/mL (≈ 3.25 µM) | 0.5 µg/mL (≈ 0.813 µM) | 1 µg/mL (≈ 1.63 µM) | 16 µg/mL (≈ 26 µM) | 4 µg/mL (≈ 6.51 µM) |  |  |  |  |  |
| CC(C)(ON=C(C(=O)NC1C(=O)N2C(C(=O)O)=C(CSC(=O)C3CCN(C(=O)CN)CC3)C[S+]([O-])C12)c1csc(N)n1)C(=O)O (centres unmarked) [compound 42673] |  |  |  |  |  |  |  | 0.25 µg/mL (≈ 0.365 µM) | 0.0625 µg/mL (≈ 0.0911 µM) | 0.25 µg/mL (≈ 0.365 µM) | 0.25 µg/mL (≈ 0.365 µM) | 0.25 µg/mL (≈ 0.365 µM) |
| Cc1ccc(C(=O)OCC2=C(C(=O)O)N3C(=O)C(NC(=O)/C(=N\OC(C)(C)C(=O)O)c4csc(N)n4)C3[S+]([O-])C2)cc1CN (centres unmarked) [42 379] | ≤ 0.125 µg/mL | ≤ 0.125 µg/mL | ≤ 0.125 µg/mL | ≤ 0.125 µg/mL | 0.25 µg/mL (≈ 0.385 µM) | 8 µg/mL (≈ 12.3 µM) | 0.5 µg/mL (≈ 0.771 µM) |  |  |  |  |  |
| NCc1ccc(C(=O)SCC2=C(C(=O)O)N3C(=O)C(NC(=O)C(=NOC4(C(=O)O)CCC4)c4csc(N)n4)C3[S+]([O-])C2)cc1 (centres unmarked) [compound 42222] | ≤ 0.12 µg/mL | 0.5 µg/mL (≈ 0.754 µM) | ≤ 0.12 µg/mL | 0.5 µg/mL (≈ 0.754 µM) | 0.5 µg/mL (≈ 0.754 µM) | 8 µg/mL (≈ 12.1 µM) | 1 µg/mL (≈ 1.51 µM) |  |  |  |  |  |
| CC(CCN)C(=O)OCC1=C(C(=O)O)N2C(=O)C(NC(=O)C(=NOC3(C(=O)O)CCC3)c3csc(N)n3)C2[S+]([O-])C1 (centres unmarked) [42 209] | ≤ 0.12 µg/mL | ≤ 0.12 µg/mL | ≤ 0.12 µg/mL | 0.25 µg/mL (≈ 0.408 µM) | 0.25 µg/mL (≈ 0.408 µM) | 4 µg/mL (≈ 6.53 µM) | 0.5 µg/mL (≈ 0.816 µM) |  |  |  |  |  |
| C[C@H](N)C(=O)OCC1=C(C(=O)O)N2C(=O)C(NC(=O)/C(=N\OC(C)(C)C(=O)O)c3csc(N)n3)C2[S+]([O-])C1 (some centres unmarked) [41 733] | 0.5 µg/mL (≈ 0.873 µM) | 1 µg/mL (≈ 1.75 µM) | 2 µg/mL (≈ 3.49 µM) | 1 µg/mL (≈ 1.75 µM) | 2 µg/mL (≈ 3.49 µM) | 8 µg/mL (≈ 14 µM) | 8 µg/mL (≈ 14 µM) |  |  |  |  |  |
| C[C@@H](N)C(=O)OCC1=C(C(=O)O)N2C(=O)C(NC(=O)/C(=N\OC(C)(C)C(=O)O)c3csc(N)n3)C2[S+]([O-])C1 (some centres unmarked) [41 891] | 0.5 µg/mL (≈ 0.873 µM) | 8 µg/mL (≈ 14 µM) | 0.5 µg/mL (≈ 0.873 µM) | 0.5 µg/mL (≈ 0.873 µM) | 0.5 µg/mL (≈ 0.873 µM) | 8 µg/mL (≈ 14 µM) | 4 µg/mL (≈ 6.99 µM) |  |  |  |  |  |
| COc1cc(C(=O)OCC2=C(C(=O)O)N3C(=O)C(NC(=O)/C(=N\OC(C)(C)C(=O)O)c4csc(N)n4)C3[S+]([O-])C2)ccc1CN (centres unmarked) [42 461] | ≤ 0.125 µg/mL | ≤ 0.125 µg/mL | ≤ 0.125 µg/mL | ≤ 0.125 µg/mL | 0.25 µg/mL (≈ 0.376 µM) | 8 µg/mL (≈ 12 µM) | 2 µg/mL (≈ 3.01 µM) |  |  |  |  |  |
| NC[C@H]1CC[C@H](C(=O)OCC2=C(C(=O)O)N3C(=O)C(NC(=O)/C(=N\OCC(=O)O)c4csc(N)n4)C3[S+]([O-])C2)CC1 (some centres unmarked) [42 211] | ≤ 0.12 µg/mL | ≤ 0.12 µg/mL | ≤ 0.12 µg/mL | ≤ 0.12 µg/mL | ≤ 0.12 µg/mL | 64 µg/mL (≈ 104 µM) | ≤ 0.12 µg/mL |  |  |  |  |  |
| CC(C)(ON=C(C(=O)NC1C(=O)N2C(C(=O)O)=C(COC(=O)CC(N)c3ccccc3)C[S+]([O-])C12)c1csc(N)n1)C(=O)O (centres unmarked) [42 026] | ≤ 0.12 µg/mL | 4 µg/mL (≈ 6.17 µM) | 0.25 µg/mL (≈ 0.385 µM) | 0.25 µg/mL (≈ 0.385 µM) | 0.5 µg/mL (≈ 0.771 µM) | 8 µg/mL (≈ 12.3 µM) | 1 µg/mL (≈ 1.54 µM) |  |  |  |  |  |
| CCNCc1ccc(C(=O)OCC2=C(C(=O)O)N3C(=O)C(NC(=O)/C(=N\OC(C)(C)C(=O)O)c4csc(N)n4)C3[S+]([O-])C2)cc1 (centres unmarked) [42 396] | ≤ 0.125 µg/mL | ≤ 0.125 µg/mL | ≤ 0.125 µg/mL | ≤ 0.125 µg/mL | ≤ 0.125 µg/mL | 8 µg/mL (≈ 12.1 µM) | 1 µg/mL (≈ 1.51 µM) |  |  |  |  |  |
| Nc1nc(/C(=N/OC2(C(=O)O)CCC2)C(=O)NC2C(=O)N3C(C(=O)O)=C(COC(=O)CC4CCNCC4)C[S+]([O-])C23)cs1 (centres unmarked) [42 473] | ≤ 0.125 µg/mL | ≤ 0.125 µg/mL | ≤ 0.125 µg/mL | ≤ 0.125 µg/mL | 0.25 µg/mL (≈ 0.391 µM) | 4 µg/mL (≈ 6.26 µM) | 0.25 µg/mL (≈ 0.391 µM) |  |  |  |  |  |
| CC(C)(O/N=C(\C(=O)NC1C(=O)N2C(C(=O)O)=C(COC(=O)[C@@H](N)Cc3c[nH]cn3)C[S+]([O-])C12)c1csc(N)n1)C(=O)O (some centres unmarked) [41 889] | 0.5 µg/mL (≈ 0.783 µM) | 8 µg/mL (≈ 12.5 µM) | 1 µg/mL (≈ 1.57 µM) | 1 µg/mL (≈ 1.57 µM) | 1 µg/mL (≈ 1.57 µM) | 8 µg/mL (≈ 12.5 µM) | 4 µg/mL (≈ 6.26 µM) |  |  |  |  |  |
